IC50 data for 43 molecules are collected here from US20260356804A1, “SODIUM CHANNEL BLOCKING COMPOUNDS, DERIVATIVES THEREOF, AND METHODS OF THEIR USE” (LATIGO BIOTHERAPEUTICS, INC., priority 2022, published 2026).

T1 sequence (Q9Y5Y9 whole entry): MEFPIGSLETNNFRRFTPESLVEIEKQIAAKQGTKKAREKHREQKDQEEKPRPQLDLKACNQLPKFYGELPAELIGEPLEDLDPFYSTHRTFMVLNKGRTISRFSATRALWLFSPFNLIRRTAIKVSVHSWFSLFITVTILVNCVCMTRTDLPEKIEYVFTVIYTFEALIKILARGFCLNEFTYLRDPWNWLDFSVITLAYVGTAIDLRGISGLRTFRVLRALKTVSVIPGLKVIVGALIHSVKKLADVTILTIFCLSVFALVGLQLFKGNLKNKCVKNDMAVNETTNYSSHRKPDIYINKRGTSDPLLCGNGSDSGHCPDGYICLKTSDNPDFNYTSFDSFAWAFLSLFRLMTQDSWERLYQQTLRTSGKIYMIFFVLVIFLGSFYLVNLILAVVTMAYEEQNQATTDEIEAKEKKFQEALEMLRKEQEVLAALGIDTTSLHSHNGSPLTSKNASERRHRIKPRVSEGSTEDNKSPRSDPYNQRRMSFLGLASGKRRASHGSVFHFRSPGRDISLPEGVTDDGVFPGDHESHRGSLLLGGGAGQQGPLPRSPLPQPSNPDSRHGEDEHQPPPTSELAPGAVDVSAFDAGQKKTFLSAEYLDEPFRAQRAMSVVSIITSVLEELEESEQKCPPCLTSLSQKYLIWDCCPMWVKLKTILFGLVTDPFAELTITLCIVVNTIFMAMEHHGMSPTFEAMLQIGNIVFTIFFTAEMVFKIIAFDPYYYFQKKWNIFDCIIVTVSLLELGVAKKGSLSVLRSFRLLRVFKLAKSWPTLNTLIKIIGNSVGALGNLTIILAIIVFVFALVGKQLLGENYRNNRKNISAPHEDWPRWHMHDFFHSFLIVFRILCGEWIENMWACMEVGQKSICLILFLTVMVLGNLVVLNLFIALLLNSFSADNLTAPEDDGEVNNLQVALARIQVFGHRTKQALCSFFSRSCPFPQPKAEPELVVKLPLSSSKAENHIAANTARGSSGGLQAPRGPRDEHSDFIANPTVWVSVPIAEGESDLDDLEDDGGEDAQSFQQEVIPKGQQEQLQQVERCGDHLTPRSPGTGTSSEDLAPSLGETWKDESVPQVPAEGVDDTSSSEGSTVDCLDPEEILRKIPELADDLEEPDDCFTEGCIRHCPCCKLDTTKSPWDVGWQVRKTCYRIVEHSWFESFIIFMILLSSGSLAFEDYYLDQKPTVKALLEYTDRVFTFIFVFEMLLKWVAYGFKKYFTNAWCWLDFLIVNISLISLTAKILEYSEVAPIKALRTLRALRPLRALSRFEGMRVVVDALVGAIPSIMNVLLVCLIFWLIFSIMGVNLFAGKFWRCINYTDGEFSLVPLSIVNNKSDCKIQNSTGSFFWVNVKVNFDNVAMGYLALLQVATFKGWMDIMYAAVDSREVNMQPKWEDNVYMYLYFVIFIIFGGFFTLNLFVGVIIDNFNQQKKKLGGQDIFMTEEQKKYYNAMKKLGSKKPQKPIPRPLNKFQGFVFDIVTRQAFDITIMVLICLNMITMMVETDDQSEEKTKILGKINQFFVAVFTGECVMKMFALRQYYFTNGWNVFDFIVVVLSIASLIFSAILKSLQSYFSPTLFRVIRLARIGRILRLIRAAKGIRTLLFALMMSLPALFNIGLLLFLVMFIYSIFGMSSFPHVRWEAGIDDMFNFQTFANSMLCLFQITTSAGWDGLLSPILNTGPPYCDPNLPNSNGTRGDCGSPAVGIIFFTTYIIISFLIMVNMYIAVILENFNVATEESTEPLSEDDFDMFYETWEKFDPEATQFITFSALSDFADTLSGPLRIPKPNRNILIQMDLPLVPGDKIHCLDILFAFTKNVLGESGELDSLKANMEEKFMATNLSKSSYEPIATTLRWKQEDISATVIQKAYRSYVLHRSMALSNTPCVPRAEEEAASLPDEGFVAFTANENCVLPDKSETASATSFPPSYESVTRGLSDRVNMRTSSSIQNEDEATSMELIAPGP
T1 sequence (Q07699 19-218 partner): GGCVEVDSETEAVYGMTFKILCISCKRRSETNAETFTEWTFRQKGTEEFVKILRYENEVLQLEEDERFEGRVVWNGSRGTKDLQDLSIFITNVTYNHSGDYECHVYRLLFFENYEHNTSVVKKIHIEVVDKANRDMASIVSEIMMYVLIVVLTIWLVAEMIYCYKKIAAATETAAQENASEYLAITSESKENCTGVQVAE

The first assay concerns the target T1, human Nav1.8/β1 (Homo sapiens, UniProt Q9Y5Y9).
T1 construct: host or cells: HEK293
Kind of assay: Compound Profiling Human NaV1.8/β1 Cell Line—Sophion QPatch II Assay (automated patch clamp, stably transfected HEK293 cells).
Conditions: not given
The format is cell-based. Here is the method:
Compounds were tested on recombinant human Nav1.8/β1 stably transfected HEK293 (Eurofins, CYL3025, St. Charles, MO) cells using the QPatch II system (Sophion Bioscience A/S, Ballerup—Denmark), an automated patch clamp device. Cells were cultured at 37° C./5% CO2 in DMEM/F-12 supplemented with 10% fetal bovine serum, 1× Non-Essential Amino Acids, and selection antibiotics (0.625 μg/mL Puromycin, 400 μg/mL Geneticin, and 100 μg/mL Hygromycin). One or two days prior to recording, cells were moved to a lower temperature 30° C./5% CO2 incubator to increase surface expression of the channels. On the day of the recordings, cells in culture dishes were washed twice with Ca^2+—Mg^2+ free DPBS and treated with Detachin (Genlantis, San Diego) for 3 minutes and then resuspended in Serum Free Medium (EX-CELL® ACF CHO Medium for Cell Culture (Sigma-Aldrich) supplemented with 0.04 mg/mL soybean trypsin Inhibitor and 25 mM HEPES (all components supplied by Sigma-Aldrich, St. Louis, MO) and allowed to recover for a minimum of 20 minutes in the onboard QStirrer. All experiments were performed at ambient temperature. Intracellular solution contained (mM): CsCl, 50; CsF, 90; MgCl2, 2; EGTA, 5; HEPES, 10; pH adjusted to 7.2 with CsOH. Extracellular solution contained (mM): NaCl, 137; KCl, 4; CaCl2), 3.8; MgCl2, 1; HEPES, 10; Glucose, 10; pH adjusted to 7.4 with NaOH. [LEFT OUT].
Compounds were tested in an interleaved manner across two cohorts of wells to develop an aggregate 8-point concentration response curve. Final concentrations include 0.1% DMSO and 0.03% pluronic Acid. In general, the concentration range spans a range from 0.01-300 nM. Compounds were diluted 1:10 with extracellular solution within their respective cohort. DMSO (0.1% by volume) served as a vehicle control to ascertain assay performance.
(§1) Whole cell patch clamp recordings were conducted according to Sophion standard procedure for QPatch II®. Cells were held at a holding potential of −120 mV. A depolarizing step to 10 mV for 30 ms was applied to elicit inward Na^+ currents. Inter-sweep interval was 15 sec. Following establishment of the whole-cell configuration in extracellular solution, cells were washed twice in extracellular solution containing 0.1% DMSO and 0.03% pluronic acid to stabilize the baseline current. Compounds were then applied by the QPatch II system into each well in an ascending manner within cohort and the current was recorded for five minutes for each concentration. Percent of current remaining was determined by taking the average of the last 5 sweeps within each concentration and normalizing to the latest pre-compound saline period. The potency (IC50) values of the compounds were only assessed against resting state block. Wells whose initial sodium current magnitude were below 2 nA or whole cell resistance fell below 100 MΩ were excluded from analysis.
as §1, with “MO” for “MΩ”, “analysis. […]” for “analysis.”
(In general: In patch-clamp work, channel activity is measured electrically.)
The term IC50 denotes the midpoint of a concentration-inhibition curve. For `Cc1nc(F)ccc1Oc1cc(C(F)(F)F)ccc1C(=O)Nc1ccc(F)c([S@@](C)(=N)=O)c1` [Example 29A], the half-maximal inhibitory concentration (IC50) was over 200 nM.

For `Cc1nc(F)ccc1Oc1cc(C(F)(F)F)ccc1C(=O)Nc1ccc(F)c([S@](C)(=N)=O)c1` [Example 30A], the half-inhibitory concentration (IC50) lay in the range of 100 to 200 nM.

The molecule `Cc1nc(F)ccc1Oc1cc(C(F)(F)F)ccc1C(=O)Nc1cccc([S@@](C)(=N)=O)c1` [Example 31A] showed an IC50 of 100 to 200 nM.

`Cc1nc(F)ccc1Oc1ccc(C(F)(F)F)c(Cl)c1C(=O)Nc1ccnc([S@](C)(=N)=O)c1` [Example 32A] had a half-maximal inhibitory concentration (IC50) of 5 to 50 nM.

With `CCC(N)(CC)CCS(=N)(=O)c1cccc(NC(=O)c2c(Oc3ccc(F)nc3C)ncc(C(F)(F)F)c2C)c1` (stereo not shown) [Example 41C, N-(3-(3-amino-3-ethylpentylsulfonimidoyl)phenyl)-2-((6-fluoro-2-methylpyridin-3-yl)oxy)-4-methyl-5-(trifluoromethyl)nicotinamide], the half-inhibitory concentration (IC50) lay in the range of 5 to 50 nM.

For `Cc1nc(F)ccc1Oc1ncc(C(F)(F)F)c(C)c1C(=O)Nc1cccc(S(=N)(=O)CCC(C)(C)O)c1` (stereo not shown) [Example 42C, 2-((6-fluoro-2-methylpyridin-3-yl)oxy)-N-(3-(3-hydroxy-3-methylbutylsulfonimidoyl)phenyl)-4-methyl-5-(trifluoromethyl)nicotinamide], the IC50 is over 200 nM.

Turning to `Cc1nc(F)ccc1Oc1ncc(C(F)(F)F)c(C)c1C(=O)N(C)c1cccc([S@](C)(=N)=O)c1` [Example 46C, (R)-2-((6-fluoro-2-methylpyridin-3-yl)oxy)-N,4-dimethyl-N-(3-(S-methylsulfonimidoyl)phenyl)-5-(trifluoromethyl)nicotinamide], the IC50 is over 200 nM.

Regarding `Cc1nc(F)ccc1Oc1ncc(C(F)(F)F)c(C)c1C(=O)N(C)c1cccc([S@@](C)(=N)=O)c1` [Example 47C, (S)-2-((6-fluoro-2-methylpyridin-3-yl)oxy)-N,4-dimethyl-N-(3-(S-methylsulfonimidoyl)phenyl)-5-(trifluoromethyl)nicotinamide], the IC50 was over 200 nM.

`Cc1nc(F)ccc1Oc1ncc(C(F)(F)F)c(C)c1C(=O)Nc1cc(S(=N)(=O)CCCO)ccn1` (stereo not shown) [Example 49C] gave an IC50 of over 200 nM.

With `CNC(C)(C)CCS(=N)(=O)c1cccc(NC(=O)c2c(Oc3ccc(F)nc3C)ncc(C(F)(F)F)c2C)c1` (stereo not shown) [Example 50C], the IC50 was 5 to 50 nM.

Turning to `CNC(C)(C)CS(=N)(=O)c1cccc(NC(=O)c2c(Oc3ccc(F)nc3C)ncc(C(F)(F)F)c2C)c1` (stereo not shown) [Example 51C], the IC50 lay in the range of 5 to 50 nM.

Molecule `Cc1nc(F)ccc1Oc1ncc(C(F)(F)F)c(C)c1C(=O)Nc1cccc(S(=N)(=O)CCC(C)(C)N)c1` (stereo not shown) [Example 52C] yielded an IC50 of 5 to 50 nM.

For the molecule `Cc1nc(F)ccc1Oc1ncc(C(F)(F)F)c(C)c1C(=O)Nc1cccc(S(=N)(=O)CC(C)(C)N)c1` (stereo not shown) [Example 53C], the IC50 is 5 to 50 nM.

In turn, `Cc1cc(F)ccc1Oc1ncc(C(F)(F)F)c(C)c1C(=O)Nc1cccc(S(=N)(=O)CCCO)c1` (stereo not shown) [Example 54C] came in with a half-inhibitory concentration (IC50) of 50 to 100 nM.

As for `Cc1cc(F)ccc1Oc1ncc(C(F)(F)F)c(C)c1C(=O)Nc1cccc(S(=N)(=O)CCCN(C)C)c1` (stereo not shown) [Example 55C], the IC50 lay in the range of 5 to 50 nM.

Consider `CNCCCS(=N)(=O)c1cccc(NC(=O)c2c(Oc3ccc(F)cc3C)ncc(C(F)(F)F)c2C)c1` (stereo not shown) [Example 56C], for which the 50% inhibitory concentration (IC50) lay in the range of 5 to 50 nM.

Molecule `COc1cc(C#N)ccc1Oc1ncc(C(F)(F)F)c(C)c1C(=O)Nc1cccc([S@](=N)(=O)CCCO)c1` [Example 57C] gave a half-inhibitory concentration (IC50) of 5 to 50 nM.

Turning to `COc1cc(C#N)ccc1Oc1ncc(C(F)(F)F)c(C)c1C(=O)Nc1cccc([S@@](=N)(=O)CCCO)c1` [Example 58C], the IC50 lay within 5 to 50 nM.

For the molecule `COc1cc(C#N)ccc1Oc1ncc(C(F)(F)F)c(C)c1C(=O)Nc1cccc(S(=N)(=O)CCCN(C)C)c1` (stereo not shown) [Example 59C], the IC50 lay in the range of 5 to 50 nM.

The molecule `CNCCCS(=N)(=O)c1cccc(NC(=O)c2c(Oc3ccc(C#N)cc3OC)ncc(C(F)(F)F)c2C)c1` (stereo not shown) [Example 60C] returned an IC50 of under 5 nM.

Turning to `Cc1nc(F)ccc1Oc1ncc(C(F)(F)F)c(C)c1C(=O)Nc1cncc([S@](C)(=N)=O)c1` [Example 61C], the IC50 was 100 to 200 nM.

For `Cc1nc(F)ccc1Oc1ncc(C(F)(F)F)c(C)c1C(=O)Nc1cncc([S@@](C)(=N)=O)c1` [Example 62C], the IC50 was over 200 nM.

Molecule `Cc1nc(F)ccc1Oc1ncc(C(F)(F)F)c(C)c1C(=O)Nc1cc(S(C)(=N)=O)ccn1` (stereo not shown) [Example 63C] returned an IC50 of over 200 nM.

On to `CNCC[S@](=N)(=O)c1cccc(NC(=O)c2c(Oc3ccc(F)nc3C)ncc(C(F)(F)F)c2C)c1` [Example 65C], for which the IC50 lay in the range of 5 to 50 nM.

Turning to `Cc1nc(F)ccc1Oc1ncc(C(F)(F)F)c(C)c1C(=O)Nc1cccc([S@@](=N)(=O)CCO)c1` [Example 66C], the IC50 lay within 50 to 100 nM.

`Cc1nc(F)ccc1Oc1ncc(C(F)(F)F)c(C)c1C(=O)Nc1cccc([S@](=N)(=O)CCO)c1` [Example 67C] gave a concentration for half-maximal inhibition (IC50) of 5 to 50 nM.

Molecule `Cc1nc(F)ccc1Oc1ncc(C(F)(F)F)c(C)c1C(=O)Nc1cccc([S@@](=N)(=O)CCCO)c1` [Example 68C] came in with a concentration for half-maximal inhibition (IC50) of 100 to 200 nM.

Turning to `Cc1nc(F)ccc1Oc1ncc(C(F)(F)F)c(C)c1C(=O)Nc1cccc([S@](=N)(=O)CCCO)c1` [Example 69C], the half-maximal inhibitory concentration (IC50) lay within 100 to 200 nM.

The molecule `Cc1nc(F)ccc1Oc1ncc(C(F)(F)F)c(C)c1C(=O)Nc1cccc(S(=O)(=O)CCCO)c1` [Example 70C] had an IC50 of 100 to 200 nM.

The molecule `CNCCCS(=O)(=O)c1cccc(NC(=O)c2c(Oc3ccc(F)nc3C)ncc(C(F)(F)F)c2C)c1` [Example 71C] came in with an IC50 of 5 to 50 nM.

Consider `Cc1nc(F)ccc1Oc1ncc(C(F)(F)F)c(C)c1C(=O)Nc1cccc([S@@](=N)(=O)CCCN(C)C)c1` [Example 72C], for which the half-inhibitory concentration (IC50) was 5 to 50 nM.

`Cc1nc(F)ccc1Oc1ncc(C(F)(F)F)c(C)c1C(=O)Nc1cccc([S@](=N)(=O)CCCN(C)C)c1` [Example 73C] came in with an IC50 of 5 to 50 nM.

As for `CNCCCS(=N)(=O)c1cccc(NC(=O)c2c(Oc3ccc(F)nc3C)ncc(C(F)(F)F)c2C)c1` (stereo not shown) [Example 74C], the IC50 is 5 to 50 nM.

Consider `Cc1nc(F)ccc1Oc1ncc(C(F)(F)F)c(C)c1C(=O)Nc1cccc([S@@](=N)(=O)CCN(C)C)c1` [Example 75C], for which the half-maximal inhibitory concentration (IC50) was in the range of 5 to 50 nM.

Molecule `Cc1nc(F)ccc1Oc1ncc(C(F)(F)F)c(C)c1C(=O)Nc1cccc([S@](=N)(=O)CCN(C)C)c1` [Example 76C] showed an IC50 of 5 to 50 nM.

With `CNCCS(=N)(=O)c1cccc(NC(=O)c2c(Oc3ccc(F)nc3C)ncc(C(F)(F)F)c2C)c1` (stereo not shown) [Example 78C], the half-inhibitory concentration (IC50) lay in the range of 5 to 50 nM.

`Cc1nc(F)ccc1Oc1ncc(C(F)(F)F)c(C)c1C(=O)Nc1cccc([S@]2(=O)=NCCC2)c1` [Example 79C] registered a half-inhibitory concentration (IC50) of 5 to 50 nM.

On to `Cc1nc(F)ccc1Oc1ncc(C(F)(F)F)c(C)c1C(=O)Nc1cccc([S@@]2(=O)=NCCC2)c1` [Example 80C], for which the IC50 was 100 to 200 nM.

`Cc1nc(F)ccc1Oc1nc(C(F)(F)F)c(Cl)cc1C(=O)Nc1ccnc([S@](C)(=N)=O)c1` [Example 81C] showed a half-inhibitory concentration (IC50) of over 200 nM.

`CC[S@@](=N)(=O)c1cccc(NC(=O)c2c(Oc3ccc(F)nc3C)ncc(C(F)(F)F)c2C)c1` [Example 82C]: the IC50 fell in the range of 50 to 100 nM.

Molecule `Cc1c(C(F)(F)F)cnc(Oc2ccc(F)nc2CO)c1C(=O)Nc1cccc([S@@](C)(=N)=O)c1` [Example 83C] displayed an IC50 of over 200 nM.

Staying with this assay, now noted: P1, resting state block; Nav1.8/β1 HEK293 cells, holding potential −120 mV; third set of compounds; read-out: P1 (IC50, resting state block).
For the molecule `CNCC[S@@](=N)(=O)c1cccc(NC(=O)c2c(Oc3ccc(F)nc3C)ncc(C(F)(F)F)c2C)c1` [Example 64C], the IC50 fell in the range of 5 to 50 nM.

Consider `Cc1nc(F)ccc1Oc1cc(C(F)(F)F)c(Cl)cc1C(=O)Nc1ccnc([S@@](C)(=N)=O)c1` [Example 77C], for which the 50% inhibitory concentration (IC50) is over 200 nM.
